Test results published in patent US10925846B2, “Phenylketone carboxylate compounds and pharmaceutical compositions for the prevention and treatment of osteoporosis” (Liminal BioSciences Limited, priority 2014, dated 2021).

Columns and labels:
[1] = tested on: RAW264.7 cells; details: cited from earlier work
[2] = tested on: LPS-stimulated RAW264.7 cells; assay: IL-12 production in LPS-stimulated RAW264.7 cells (IL-12 ELISA); type: cell-based, murine
Method: Accordingly, RAW264.7 cells are cultured with 100 ng/mL of LPS in presence or absence of the compound(s) for 21 h in a humidified atmosphere of 95% air-5% carbon dioxide at 37° C. IL-12 concentration in the culture medium is measured using the IL-12 ELISA according to the manufacturer (BD Biosciences) recommendations. […] Accordingly, an in vitro IL-12 production assay was used for screening potential inhibitors of osteoclastogenesis.

[3] = tested on: ovariectomized (OVX) rats; assay: Ovariectomized-rat model of osteoporosis; type: in vivo, Sprague Dawley rats
Excerpt: Although in comparison to humans, the skeletal mass of rats remains stable for a protracted period during their lifespan, rats can be ovariectomized to make them sex-hormone deficient, and to stimulate the accelerated loss of bone that occurs in women following menopause. Ovariectomy induced bone loss in the rat and postmenopausal bone loss share many similar characteristics. These include: increased rate of bone turnover with resorption exceeding formation; an initial rapid phase of bone loss followed by a much slower phase; greater loss of cancellous than cortical bone; decreased intestinal absorption of calcium; some protection against bone loss by obesity; and similar skeletal response to therapy with estrogen, tamoxifen, bisphosphonates, parathyroid hormone, calcitonin and exercise. These wide-ranging similarities are strong evidence that the ovariectomized rat bone loss model is suitable for studying problems that are relevant to postmenopausal bone loss.
Sprague Dawley rats (250 g) were ovariectomized (OVX) at day 0. Rats were treated by oral gavage with Compound I (10 mg/kg) from day 14 to day 68. Evaluation of different parameters (body weight, calcium loss, osteoclast markers (RANKL and TRAP mRNA expression), collagen content and histology was performed at day 68.

[4] = compound concentration 0.020 mM

**Q.** With CCCCCCCCCC(=O)O [capric acid] as the compound, how does the IL-12 production ([1]; LPS-stimulated RAW264.7 cells) read?
**A.** increases

**Q.** What about the “LPS-upregulated iNOS mRNA levels and nitric oxide (NO) production” value ([1]; LPS) of the same compound?
**A.** inhibited

**Q.** And the “phosphatase (TRAP)-positive cells (osteoclast differentiation marker)” value ([1]; RAW264.7 cells)?
**A.** reduction

**Q.** What about the “monocyte chemoattractant protein-1 (MCP-1) mRNA expression” value [1] of the same compound?
**A.** inhibited

**Q.** With CCCCCCCCC(Oc1ccc(C(=O)CCCCC)cc1)C(=O)[O-].[Na+] (racemic) [Compound VI, Sodium (RS)-2-[4-Hexanoylphenoxy]decanoate] as the compound, how does the IL-12 [2, 4] read?
**A.** 53.5 pg/mL

**Q.** What about the melting point of the same compound?
**A.** 275 to 280 °C

**Q.** For CCCCCCCCC(Oc1ccc(C(=O)CCCCCCC)cc1)C(=O)[O-].[Na+] (racemic) [Compound I, Sodium (RS)-2-[4-Octanoylphenoxy]decanoate], which IL-12 ([2]; compound concentration 0.0075 mM) is on record?
**A.** 112 pg/mL

**Q.** What about the “body weight / ovariectomized-induced obesity” value ([3]; 10 mg/kg oral gavage day 14 to day 68, FIG. 1) of the same compound?
**A.** reduced ovariectomized-induced obesity

**Q.** And the “calcium loss in urine” value ([3]; 10 mg/kg oral gavage, day 28 to day 56, FIG. 2)?
**A.** reduced significantly

**Q.** And the “acid phosphatase activity in serum” value ([3]; 10 mg/kg oral gavage, day 28 to day 56, FIG. 3)?
**A.** reduced

**Q.** What about the “ratio of mRNA expression of RANKL/OPG in rat tibia” value ([3]; 10 mg/kg oral gavage, day 68, FIG. 4) of the same compound?
**A.** decreased

**Q.** What about the “collagen content in the metaphyse of the femur” value ([3]; 10 mg/kg oral gavage, day 68, FIG. 5) of the same compound?
**A.** increased

**Q.** And the “bone loss in the metaphysis portion of the femur (histology)” value ([3]; 10 mg/kg oral gavage, day 68, FIGS. 6 and 7)?
**A.** reduced bone loss

**Q.** For CCCCCCCC(=O)c1cccc2c1CC(C(=O)[O-])C2.[Na+] (racemic) [Compound III, Sodium (RS)-4-Octanoylindane-2-carboxylate], which IL-12 ([2]; compound concentration 0.1 mM) is on record?
**A.** 24.95 pg/mL

**Q.** With CCCCCCCCC(Cc1ccc(C(=O)CCCCCCC)cc1)C(=O)[O-].[Na+] (racemic) [Compound VII, Sodium (RS)-2-[4-Octanoylbenzyl]decanoate] as the compound, how does the IL-12 ([2]; compound concentration 0.012 mM) read?
**A.** 8 pg/mL

**Q.** What does the source list for CCCCCCCCC(Oc1ccc(C(=O)CCC)cc1)C(=O)[O-].[Na+] (racemic) [Compound V, Sodium (RS)-2-[4-Butyrylphenoxy]decanoate]?
**A.** IL-12 ([2]; compound concentration 0.040 mM): 73.32 pg/mL; melting point: 262 to 278 °C

**Q.** Which results are given for CCCCCCCC(=O)c1ccc(OC(CCCCCC)C(=O)[O-])cc1.[Na+] (racemic) [Compound IV, Sodium (RS)-2-[4-Octanoylphenoxy]octanoate]?
**A.** IL-12 [2, 4]: 12.13 pg/mL; melting point: 165 to 170 °C
